“Also recorded” adds a separate entry of the source. Like-named read-outs stand apart in the source and are kept apart here. Values belong to the molecule of their own block, whether it stands above or below them.
What was measured:
[1] = target: lipid SUVs with a phospholipid composition similar to the OMM (55% PC, 30% PE, 13% PI, 2% DOPS); assay: Equilibrium binding of peptides to OMM mimicking vesicles by fluorescence anisotropy
Description: (§1) Phosphatidylcholine (PC, Sigma), Phosphatidylethanolamine (PE, Sigma), Phosphatidylinositol (PI, Sigma) and Dioleoyl phosphatidylserine (DOPS, Avanti) were mixed in chloroform and evaporated under nitrogen. The vesicles were then resuspended in 40 mM Hepes pH 7.1, 150 mM NaCl and subjected to 10 freeze-thaw cycles in liquid nitrogen and kept in −80° C. The vesicles were thawed and sonicated for five min at low intensity; insoluble material was removed by centrifugation at 100,000×gav for 20 min. Vesicles were used within two days after sonication.
(§2) Equilibrium binding by Fluorescence Anisotropy (FA) measurements was performed with PCI spectrofluorimeter (ISS, Champaign, Ill.) designed as T-format for simultaneous acquisition on two emission channel monochromators equipped with automatic polarizers. Samples were equilibrated (60 min, RT) and then measurements were done with intrinsic fluorescence of the peptide with λex=280 nm using vertical polarized light and the emitted vertical and horizontal polarized light was monitored at 90° with double emission monochromators at λem=325 nm. (i-factor for correction of the different gain between the dual PMT detectors was calculated as described by the instrument manufacturer. The binding model for a simple bimolecular reaction was:
[formula] [formula] Under the condition of Ptot<<KD then the general solution for this equilibrium binding scheme is in the form of the following quadratic equation:
[formula] Ptot is monitoring species; Vtot is titrating species and [PV] is the bound species. The total fluorescence and anisotropy were fitted globally (Origin Lab 9.0) according to Otto et al. Biophys J, 1994. 67(6): p. 2511-21.
Myo19 peptides were purchased as crude preparations and resuspended in 10% Acetonitrile (ACN) and either 0.1% (for Myo19^851-895) or 0.01% (for Myo19^858-883 and Myo19^858-RK883SS) trifluoroacetic acid (TFA). The peptides were then loaded on a C-18 column (Waters) and separated by reverse phase chromatography. Peaks were analyzed by MALDI-TOF and verified to be of the right molecular weight corresponding to the peptide size. The peptides were then dried and resuspended in either 5% DMF (Myo19^858-883 and Myo19^RK883SS) or 16% DMF (Myo19^851-895) in binding buffer (40 mM Hepes pH 7.1, 150 mM NaCl). Myo19^851-895, Myo19^858-883, Myo19^858-RK883SS peptides were from GL Biochem (Shanghai, China). Zeta1 was from Sigma (Saint Louis, Mo., USA).
To characterize Myo19 membrane binding motif, the binding of a synthetic peptide representing Myo19 residues 851-895 (SEQ ID NO: 12, Table 3) to lipid SUVs (Small unilamellar vesicles) with a phospholipid composition similar to the OMM (55% PC, 30% PE, 13% PI, 2% DOPS (de Kroon et al., 1997)) was tested. Binding was followed via fluorescence anisotropy (FA) relying on two tryptophan residues that are present in the peptide. […] Equilibrium binding of Myo19 peptide to vesicles was monitored by titrating peptide versus increasing vesicles concentration. […] Therefore, to account for the FTI change during the FA measurements, global fitting to both signals arising from peptide binding to vesicles to compensate for the change in fluorescence yield during FA measurements was applied. […] In-vitro binding of a hydrophilic peptide Zeta1 (SEQ ID NO:15, Table 3), was much weaker (˜2.5 folds) compared to the Myo19 peptide (124.4±18.7 μM), supporting the notion that Myo19-OMM binding is mediated by hydrophobic interactions (FIG. 23). Although our newly identified membrane motif is essential and sufficient for OMM localization in cells, the cellular specificity may be achieved by unique, yet unidentified cytosolic or others mitochondrial components.

[2] = system: Myo19-eGFP expressing U2OS cells; assay: Myo19 foci formation / translocation to cell periphery in Myo19-eGFP expressing cells treated with cytoskeleton interfering drugs; assay type: cell-based
Description: Cells were rinsed once and incubated in starvation medium (Glucose free DMEM supplemented with 20 mM Hepes-KOH pH 7.4, 5 mg/ml BSA, 100 U/ml penicillin, 100 μg/ml streptomycin and 0.25 μg/ml amphotericin B). Cytoskeleton interfering drugs (final concentration: 0.2 μM Latrunculin B or 0.75 μg/ml Nocodazole) were first diluted in growth media and then added to the cells.
(§3) Transfections were performed using Polyethylenimine (PEI). Adherent U2OS cells were plated a day before transfection on plastic or glass bottom dishes and allowed to adhere overnight (ON). Plasmid DNA and PEI were diluted separately in 150 mM NaCl, combined and complex formation was allowed for 25 min at RT before addition to the cells and incubation ON. Hoechst 33342 (0.75 μg/ml Sigma), MitoTracker (30 nM, Molecular probes) and Propidium iodide (1 μg/ml, Sigma) were added 15 min prior to imaging. HaloTag constructs were stained by incubating the cells with HaloTag TMR Ligand ON (25 nM, Promega). The cells were imaged using InCell Analyzer 2000, Confocal Zeiss LSM 700 or Confocal Zeiss LSM 710 in an environmental chamber.
Mitochondria function as an intracellular biosensor that responds to environmental changes, stress cues and physiological stimuli. Therefore, it is essential to test the function of myosin 19 and its relation to mitochondrial distribution and morphology in cells under starvation conditions as well under drugs, which disrupt cytoskeletal structures. Starvation stress was chosen because it strongly shifts mitochondrial dynamics of fission and fusion, inducing hyperfusion of the mitochondrial network, and that fission and fusion depend on force generation on the mitochondria. Therefore, it was assessed whether or not starvation-induced hyperfusion is accompanied by any differential cellular localization of myosin 19. Myosin 19-eGFP was overexpressed and cells were starved for four hrs. […] The inventors further tested if myosin 19 OMM binding motif is essential for this starvation-induced localization (FIG. 3A, middle two panels). […] This lends further support to the interpretation that myosin 19^Δ860-890-eGFP cannot compete with the endogenous myosin 19 because of its inability to bind the mitochondria. The inventors further assessed whether this transition of myosin 19 to the cell periphery requires myosin 19 motor activity utilizing an overexpression of myosin 19 tail (FIG. 3A, bottom two panels, FIG. 8) and an ATPase dead mutant G 135R (FIG. 9, FIG. 8). […] Indeed, pre-treatment of cells with 0.2 μM Latrunculin B that disrupts actin filaments of the cytoskeleton for 30 min inhibited the starvation-induced translocation of myosin 19 and the mitochondria to the cell periphery (FIG. 3B, FIG. 10). […]

[3] = system: mitochondria (MitoTracker) or ER; assay: Colocalization of eGFP-fused myosin 19 tail constructs with mitochondria (MitoTracker) or ER (SRβ); assay type: cell-based; settings: myosin 19^824-970-eGFP and mutant variants ectopically expressed
Description: Generation of peGFP-myosin 19 mutations and truncations were performed using high fidelity PCR enzymes with phosphorylated primers (Phusion, T4 PNK, NEB). We used peGFP-myosin 19 (peGFP-N1b was kindly provided by Dr. Ayoub (Technion-IIT)) or peGFP-myosin 19 tail (aa 824-970) as template with a single exception for peGFP-myosin 19^860-890 where peGFP-myosin 19^860-970 was used. The products were ligated using T4 ligase (NEB, Promega) and sequenced.
as §3
In accordance to the finding in the cells (FIG. 2A), Myo19^860-890-eGFP was co-purified with mitochondria, however unlike the endogenous Myo19, it appears to be more sensitive to extraction by salt. Carbonate completely extracts Myo19^860-890-eGFP from purified mitochondria, similarly to endogenous Myo19 (FIG. 22). The difference in salt sensitivity may be due to insufficient length of the motif to be fully anchored in the membrane as in the WT endogenous protein. Another possibility is that a certain part of Myo19^860-890-eGFP was correctly anchored, where the rest was present there nonspecifically, e.g. through dimerization of eGFP. […] To further explore the OMM targeting the motif sequence was examined. Although there is no consensus sequence targeting proteins to the OMM, it was shown that a moderately hydrophobic motif flanked by positive residues is required for OMM localization. […]

[4] = target: ER mimicking vesicles (20% PE, 66 & PC, 9% PI, 3% DOPS); assay: Equilibrium binding of peptides to ER mimicking vesicles by fluorescence anisotropy; settings: FA/FTI global fit; peptide concentrations 4 μM; N=1; read-out: affinity to ER mimicking vesicles
Description: as §1, §2
[formula] […]

[5] = FA/FTI global fit, peptide concentrations 4 μM, N=1, read-out: affinity to OMM mimicking vesicles

Molecule: FRWGKPVGKKRRPVKVYPNGAEDESAEAFPLE [Zeta1, reference compound]
Kd [1, 5]: 124 ± 18.7 µM
binding weaker compared to the Myo19 peptide ([1]; Zeta1 versus Myo19 peptide): ~2.5 folds

effect of [NaCl] on the magnitude of binding to vesicles ([1]; [NaCl] up to 1 M, peptide and vesicles 35 μM each): no effect
Kd ([1]; global fit of FA and FTI, peptide concentration 35 μM, 40 mM Hepes pH 7.1, 150 mM NaCl, read-out: apparent binding constant KD): 281 ± 50 µM
Molecule: PLQTRLLEAIIRLWPLGLVLANTAMGVGSFQRKLVVWACLQLPRG [Myo19^851-895, synthetic peptide representing Myo19 residues 851-895]

Molecule: COC(=O)Nc1nc2ccc(C(=O)c3cccs3)cc2[nH]1 [nocodazole]
localization of myosin 19 and mitochondria after nocodazole treatment ([2]; 0.75 μg/ml nocodazole for three hrs, no starvation): induced the same altered localization
cells with induced Myo19 foci formation ([2]; nocodazole treatment, complete media conditions): > 80 % of the cells

Molecule: IIRL*WPLGLVLANTAMGVGSF*QSSLVVWACL (IIRLWPLGLVLANTAMGVGSFQSSLVVWACL) [RK882/3SS, myosin 19 tail-eGFP construct with R882S and K883S in combination]
Localization ([3]; listed as SEQ ID NO: 10): shift of the intracellular localization of Myo19 to the ER

Kd [1, 5]: 49 ± 17.2 µM
Molecule: EAIIRLWPLGLVLANTAMGVGSFQSS [Myo19^858-RK882/3SS, corresponding ER mutant of the shorter Myo19 peptide]

Kd [1, 5]: 45 ± 14.1 µM
Kd [4]: 50.5 ± 22 µM
Molecule: EAIIRLWPLGLVLANTAMGVGSFQRK [Myo19^858-883, shorter peptide derived from Myo19 membrane motif]

Molecule: IIRL*WVLGLVLANTAMGVGSF*QRKLVVWACL (IIRLWVLGLVLANTAMGVGSFQRKLVVWACL) [Peptide P865V, myosin 19 tail-eGFP construct with point mutation P865V]
Localization [3]: dual localization to both the ER and the mitochondria; also recorded: ER/Mito-

Molecule: C/C1=C/C(=O)O[C@@H]2C[C@@H](CC[C@H](C)/C=C\CC1)O[C@@](O)([C@@H]1CSC(=O)N1)C2 [Latrunculin B]
cells showing <2 Myo19 foci ([2]; 0.2 μM latrunculin B 30 min prior to starvation): < 30 % of the cells
starvation-induced translocation of myosin 19 and the mitochondria to the cell periphery ([2]; 0.2 μM, 30 min pre-treatment, then starvation): inhibited

B1: IIRL*WPLGLVLANTAMGVGSF*QRKLVVWACL (protein, UniProt Q96H55 824-970, looked up, fragment)
chain: MACLAAKELDGVEEKHFSQAPCSLSTSPLQTRLLEAIIRLWPLGLVLANTAMGVGSFQRKLVVWACLQLPRGSPSSYTVQTAQDQAGVTSIRALPQGSIKFHCRKSPLRYADICPEPSPYSITGFNQILLERHRLIHVTSSAFTGLG
modifications: eGFP fusion
Localization [3]: Mito-
